# From article PMC6918687, “Pharmacological inhibition of TAK1, with the selective inhibitor takinib, alleviates clinical manifestation of arthritis in CIA mice” (Arthritis Research & Therapy, 2019)
# Read-outs that look alike come from different tables or passages of the source.
# Key:
# [1] = test system: CIA mice; assay: Type II collagen-induced arthritis (CIA) mouse model: clinical arthritis score and body weight; format: in vivo, DBA/1 mice; settings: for % Inhibition from Vehicle Disease (clinical score AUC): day 36
# Description: The DBA/1 CIA model was conducted in accordance with The Guide for the Care & Use of Laboratory Animals (8th Edition) and therefore in accordance with all Bolder BioPATH IACUC approved policies and procedures. The Bolder Biopath IACUC approved a “blanket” IACUC protocol for this specific working protocol (BBP-001). No acceptable alternative test systems were identified for the animals used in this study. […] Clinical evaluation was performed under experimenter blinded conditions.
# Collagen was prepared as a 4 mg/ml solution in 0.01 N acetic acid. Equal volumes of 4 mg/ml collagen and 5 mg/ml Freund’s complete adjuvant were emulsified by hand mixing with syringes for approximately 5 min, at which point a bead of this material holds its form when placed in water. On study days 0 and 21, animals were anesthetized with isoflurane and given intradermal injections of a total of 400 μg of type II collagen in Freund’s complete adjuvant at the base of the tail.
# Mice were randomized by body weight into treatment groups on study day 18. Treatment was initiated following enrollment. On study day 36, the mice were euthanized for necropsy. Clinical scores were given for each of the paws (right front, left front, right rear, left rear) on study days 18–36. Experimenter was blinded from the treatment group during clinical evaluation and scoring.
# [2] = Pharmacokinetics of takinib by LC-MS in plasma and tissues; format: in vivo, C3-tag mice; settings: C3 tagged mice; for half-life: C3-tag, mouse, ip
# Description: C3-tag mice were injected intraperitoneally (i.p.) with 50/75mpk takinib and sacrificed at 0, 1 h, 2 h, 4 h, 8 h, 16 h, and 24 h. At the indicated time points, the heart, spleen, kidney, liver, tumor, blood, plasma, muscle, and lung were harvested. All samples were frozen and stored at − 80 °C. Before quantifying the takinib in serum, a standard curve was constructed using HS-219, a close structural analog of takinib that serves as an internal standard. This internal standard solution was used for tissue homogenization. LC-MS analysis was performed at the Duke Proteomics and Metabolomics Core Facility. The final concentration of takinib in the plasma was calculated per milliliter of plasma.
# GraphPad Prism 7 was used for statistical analysis of clinical score comparisons, histological analysis, and plasma concentrations. Two-way ANOVA followed by Dunnett’s multiple comparison test was performed for mean clinical score sum (Fig. 1); weight change over time (Fig. 1); joint score sum for all joints, knees, and forepaw and hind paw (Figs. 2, 3); protein analysis (Figs. 5, 6); and cell survival (Fig. 6g). A linear regression of LC-MS data on takinib was used for PK studies. T½ was determined by non-linear one-phase decay curves. Student T tests were performed for periosteal bone width (Additional file 1: Figure S2) and cell survival (Fig. 6f, g). An alpha of 0.05 was used for all statistical analysis.
# [3] = test system: CIA mice; assay: CIA mouse model: joint histopathology scores, day 36; format: in vivo, DBA/1 mice
# Source text: After 1–2 days in fixative and 4–5 days in 5% formic acid for decalcification, tissues were trimmed and processed for paraffin embedding. Paws were embedded in paraffin in the frontal plane, and the knees were embedded with the patella facing down. Ankles, if left attached to the hind paw, were also embedded in the frontal plane but may be detached and sectioned in the sagittal plane for special purposes. Left/right pairs were typically embedded in the same block. Sections were cut and stained with toluidine blue.
# The paw score criteria were as follows: 0 = Normal. 0.5 = Very minimal, affects only 1 joint or minimal multifocal periarticular infiltration of inflammatory cells. 1 = Minimal infiltration of inflammatory cells in synovium and periarticular tissue of affected joints. 2 = Mild infiltration of inflammatory cells. When referring to paws, generally restricted to affected joints (1–3 affected). 3 = Moderate infiltration with moderate edema. When referring to paws, restricted to affected joints, generally 3–4 joints and the wrist or ankle. 4 = Marked infiltration affecting most areas with marked edema, 1 or 2 unaffected joints may be present. 5 = Severe diffuse infiltration with severe edema affecting all joints (to some extent) and periarticular tissues.
# The knee score criteria were as follows: 0 = Normal. 0.5 = Very minimal, affects only one area of the synovium or minimal multifocal periarticular infiltration of inflammatory cells. 1 = Minimal infiltration of inflammatory cells in synovium and periarticular tissue of affected synovial areas. 2 = Mild diffuse infiltration of inflammatory cells. 3 = Moderate diffuse infiltration of inflammatory cells. 4 = Marked diffuse infiltration of inflammatory cells. 5 = Severe diffuse infiltration of inflammatory cells.
# The cartilage damage score criteria were as follows: 0 = Normal. 0.5 = Very minimal = Affects marginal zones only of one to several areas (knees) or joints (paws). 1 = Minimal = Generally minimal to mild loss of toluidine blue staining (proteoglycan) with no obvious chondrocyte loss or collagen disruption in affected joints/areas. 2 = Mild = Generally mild loss of toluidine blue staining (proteoglycan) with focal areas of chondrocyte loss and/or collagen disruption in some affected joints/areas. Paws may have one or two digit joints with near total to total loss of cartilage. 3 = Moderate = Generally moderate loss of toluidine blue staining (proteoglycan) with multifocal chondrocyte loss and/or collagen disruption in affected joints/areas. Paws may have three or four joints with near total or total loss. In the knee, some matrix remains on any affected surface with areas of severe matrix loss. 4 = Marked = Marked loss of toluidine blue staining (proteoglycan) with multifocal marked (depth to deep zone or tidemark) chondrocyte loss and/or collagen disruption in most joints with a few unaffected or mildly affected. In the knee, one surface with total to near total cartilage loss. 5 = Severe = Severe diffuse loss of toluidine blue staining (proteoglycan) with severe (depth to tide mark) chondrocyte loss and/or collagen disruption in most or all joints.
# [4] = test system: TAK1; settings: read-out: potency as inhibitor of TAK1; cited from earlier work
compound,measurement,setting,value
CCCn1/c(=N/C(=O)c2cccc(C(N)=O)c2)[nH]c2ccccc21 [takinib],% Inhibition from Vehicle Disease (clinical score AUC),"[1]; CIA DBA/1 mice, takinib 50 mg/kg i.p. daily",32%
same,% Inhibition from Vehicle Disease (clinical score AUC),"[1]; CIA DBA/1 mice, takinib 50 mg/kg i.p. daily, listed as Takinib",32% (p=0.08)
same,Mean Clinical Arthritic Score (AUC),"[1]; CIA DBA/1 mice, takinib 50 mg/kg i.p. daily, evaluated at day 36",14.19
same,less overall body weight loss compared to vehicle control,"[1]; CIA mice, 50 mg/kg i.p. daily, at termination of the study, p = 0.009",50%
same,mean daily clinical arthritis scores vs vehicle disease control,"[1]; CIA mice, 50 mg/kg i.p. daily, days 30–36",significantly differed
same,half-life,"[2]; heart, 50 mg/kg, 50 mpk i.p., read-out: half-life, heart (converted)",16 min
same,half-life,"[2]; heart, 75 mg/kg, 75 mpk i.p., read-out: half-life, heart (converted)",14.4 min
same,half-life,"[2]; muscle, 50 mg/kg, 50 mpk i.p., read-out: half-life, muscle (converted)",8.82 min
same,half-life,"[2]; muscle, 75 mg/kg, 75 mpk i.p., read-out: half-life, muscle (converted)",5.64 min
same,half-life,"[2]; plasma, 50 mg/kg, 50 mpk i.p., read-out: half-life, plasma (converted)",15.4 min
same,half-life,"[2]; plasma, 75 mg/kg, 50 or 75 mg/kg i.p., read-out: plasma (serum) clearance t½",21 min
same,half-life,"[2]; plasma, 75 mg/kg, 75 mpk i.p., read-out: half-life, plasma (converted)",28.2 min
same,half-life,"[2]; spleen, 50 mg/kg, 50 mpk i.p., read-out: half-life, spleen (converted)",279 min
same,half-life,"[2]; tumor, 50 mg/kg, 50 mpk i.p., read-out: half-life, tumor (converted)",22.1 min
same,half-life,"[2]; tumor, 75 mg/kg, 75 mpk i.p., read-out: half-life, tumor (converted)",9.94 min
same,"half-life, spleen","[2]; 50 mpk i.p., 50 mg/kg",277.6 min
same,reduction of disease burden,[3]; 50 mg/kg daily (discussion),~ 40%
same,reduction of overall periosteal bone width vs vehicle,"[3]; 50 mg/kg daily, all joints, p = 0.06",35%
same,reduction of overall sum score of knees,"[3]; 50 mg/kg daily, day 36",~ 40%
same,"cartilage damage score, all joints","[3]; 50 mg/kg daily, day 36, p = 0.013",significantly reduced
same,"inflammation score, all joints","[3]; 50 mg/kg daily, day 36, p = 0.019",significantly reduced
same,reduction of overall joint pathology (all joints summed histological score) vs vehicle,"[3]; 50 mg/kg daily, day 36, p = 0.02",~ 30%
same,"average reduction in disease pathology, hind paws and forepaws","[3]; 50 mg/kg daily, inflammation, pannus, cartilage damage, bone resorption, periosteal bone formation",20–30%
same,"histological score of cartilage damage, knees","[3]; 50 mg/kg daily, p = 0.0042",significantly reduced
same,"histological score of inflammation, knees","[3]; 50 mg/kg daily, p = 0.0044",significantly reduced
same,"reduction of bone resorption histological score, knees","[3]; 50 mg/kg daily, trend",~ 40%
same,"reduction of pannus histological score, knees","[3]; 50 mg/kg daily, trend",~ 40%
same,"overall sum histological score, hind paws","[3]; 50 mg/kg daily, vs vehicle, p = 0.0078",reduced
same,"overall sum histological score, forepaws","[3]; 50 mg/kg daily, vs vehicle, p = 0.0091",reduced
same,IC50,[4],~9 nM
